# Measurements reported in patent US20230128412A1, “METHODS FOR ENHANCING RECOMBINANT ADENO-[…] YIELD” (Ultragenyx Pharmaceutical Inc., priority 2020, published 2023).
# Key:
# Format in all cases: cell-based
# [1] = tested on: HEK293 cells (rAAV8-OTC); assay: Effect of additional compounds on rAAV production with HEK293 cells, 24 deep-well plates; details: for rAAV titers (summary statement): HEK293 cells
# Excerpt: In this example, the effect of compounds other than niacinamide on rAAV production in HEK293 cells was examined. The compounds analyzed in this example included niacin, methyl nicotinate, myo-inositol, pantothenic acid, pyridoxine, choline, thiamine, glucosamine, caffeine, n-acetyl glucosamine, and thymidine.
# The experiment was run in 24 deep-well plates using the same cells as described in Example 5 under similar transfection and culture conditions. The concentrations of each compound tested were 1 mM, 3 mM, and 9 mM. […] None of the other compounds tested provided a significant benefit to rAAV titer at any of the three concentrations tested.
# [2] = tested on: HeLa producer cells; assay: Effect of niacinamide concentration on rAAV production, HeLa producer cell lines, 24 deep-well plate; details: for normalized volumetric rAAV titer: Clade E and F rAAV
# Procedure: (§1) In this example, the effect of various concentrations of niacinamide ranging from 0.1 mM to 40 mM on rAAV production was tested in a variety HeLa producer cell lines. The experiment was run in a 24 deep-well plate culture system with a 3 mL working volume, a seeding density of 0.2×10^6 cells in cell culture production medium, and an Ad5 multiplicity of infection (MOI) of 200 vp/cell. […] The capsid serotypes included in this analysis were AAV8, AAV9, rh10, and hu37.
# [3] = tested on: HEK293 cells (rAAV8-OTC); assay: Effect of niacinamide concentration on rAAV production with HEK293 cells
# Procedure: In this example, the effect of various concentrations of niacinamide ranging from 0.03 mM to 30 mM on rAAV production was tested with HEK293 cells. The experiment was run in 30 mL flasks using a transfection density of 1.3×10^6 to 2.0×10^6 cells/mL. The HEK293 cells used in this experiment were transfected with plasmids enabling the production of rAAV8 encoding an ornithine transcarbamylase (rAAV8-OTC).
# [4] = tested on: HeLa clones (AAVrh10-FIX, AAV8-G6Pase, AAVhu37-FVIII); assay: Effect of niacinamide on rAAV production with Clade E HeLa clones; details: between 1 mM and 5 mM niacinamide; all four clones
# Procedure: as §1
# Four different HeLa clones were tested using the conditions described in Example 1. FIG. 4A-D show the rAAV titer (GC/mL) per varying niacinamide concentrations for Clone 1 (AAVrh10-FIX) follow-up supernatant, clone 2 (AAV8-G6Pase) supernatant, Clone 3 (AAV8-G6Pase) wide range with no supplement, and Clone 4 (AAVhu37-FVIII) wide range no supplement suspension (i.e., Triton-lysed sample), respectively.
# [5] = tested on: HeLa producer cell line (AAVrh10-FIX); assay: Effect of vessel scale (24-DW vs 100 mL shake flask) with niacinamide on rAAV production; details: scale removed as a factor; all niacinamide concentrations
# Procedure: In this example, the effect of scale using two common vessels (3 mL-deep well (“24-DW”) and 100 mL shake flask (“Flasks”)) with niacinamide on rAAV production was tested. The analysis was conducted using a HeLa producer cell line capable of producing a Clade E rAAV encoding a Factor IX transgene (AAVrh10-FIX). FIG. 3 depicts a bar graph showing rAAV titer (GC/mL) at varying niacinamide concentrations at the different scales. […] The scale and interaction factors were insignificant (p=0.3915 and p=0.1353 respectively).
# [6] = tested on: HeLa producer cell line clones (AAV9-ATP7B); assay: Effect of niacinamide on rAAV production with Clade F HeLa clones, 2 L bioreactor; details: 3 mM niacinamide, both clones
# Procedure: In this example, the effect of 3 mM niacinamide on two HeLa producer cell line clones expressing recombinant Clade F AAV encoding a truncated ATP7B transgene (AAV9-ATP7B) was examined in a 2 L bioreactor.
# [7] = niacinamide between 1 mM and 10 mM
compound,measurement,setting,value
C[N+](C)(C)CCO [choline],increase in titer,[1]; 3 mM compound,65%
same,rAAV titers (summary statement),[1],can boost rAAV titers
COC(=O)c1cccnc1 [methyl nicotinate],increase in titer,[1]; 3 mM compound,42%
same,rAAV titers (summary statement),[1],can boost rAAV titers
OC1C(O)C(O)C(O)C(O)C1O (centres unmarked) [myo-inositol],increase in titer,[1]; 3 mM compound,approximately 20%
same,increase in titer,[1]; 9 mM compound,approximately 20%
same,rAAV titers (summary statement),[1],can boost rAAV titers
O=C(O)c1cccnc1 [niacin],increase in titer,[1]; 1 mM compound,20%
same,rAAV titers (summary statement),[1],can boost rAAV titers
NC(=O)c1cccnc1 [niacinamide],level of benefit to rAAV titer compared with the other compounds,[1]; niacinamide versus the 11 compounds of Example 6,substantially and surprisingly superior to the other 11 compounds examined
same,niacinamide concentration of predicted maximum rAAV titer (3rd-order polynomial fit),"[2]; fit of normalized titer data points, FIG. 2",5 mM
same,normalized volumetric rAAV titer,"[2]; niacinamide 0.1 mM to 10 mM, relative to no niacinamide",Increases in rAAV titer
same,"normalized volumetric rAAV titer (GC/mL), 3rd-order polynomial fit",[2]; [7],Significant increases in rAAV titer
same,normalized volumetric rAAV titer,[2]; [7],most significant increases
same,rAAV titer,"[3]; 0.3 mM niacinamide, 30 mL flasks",increases in titer
same,rAAV titer,"[3]; 3 mM niacinamide, 30 mL flasks",increases in titer
same,rAAV titer,[3]; repeat run at 2 L bioreactor scale (data not shown),increase in titer
same,rAAV titer (GC/mL),[4],titer increase
same,"rAAV titer, Dunnett's Test",[5],significance at all concentrations
same,rAAV titer,[6],significant titer increase
